# Source: PubChem BioAssay AID463206 (Broad Institute, 2010)
# Active and inactive are the calls of the source.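 The calls were made as follows: active = caspase luminescence falls with dose and the half-maximal concentration AC50 from the fitted curve is at or below a set limit; inconclusive = flat fit at 30 to 70% signal loss, or invalid fit; inactive = AC50 above the limit, or signal rises instead.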
# Test system: INS-1E cytokine-induced caspase-3/7, Caspase-Glo luminescence, 48 h
# Assay: suppression of cytokine-driven beta-cell apoptosis – INS-1E rat cells, luminescence, orthogonal assay for beta-cell apoptosis protection project, dose response (AID 463206)
row,Structure (SMILES),AC50
1,CCOc1ccc2nc(NC(=O)c3ccccn3)sc2c1,> 26 µM (inactive)
2,COc1ccc(Nc2ccc3c(c2)=NC2(CCCCC2)[N+]=3[O-])cc1,> 26 µM (inactive)
3,COC(=O)C1=C(C)N(Cc2ccccc2)C(=NCc2ccccc2)N[C@H]1c1cccc(C(F)(F)F)c1,> 26 µM (inactive)
4,COc1cc(NC(=O)c2[nH]cnc2C(N)=O)cc(C(=O)Nc2cccc(C(F)(F)F)c2)c1,> 26 µM (inactive)
5,Cc1ccc(NC(=O)C(C)Sc2nnc(C)n2C2CC2)cc1S(=O)(=O)N1CCOCC1 (stereo unspecified),> 26 µM (inactive)
6,O=C(Nc1nc(-c2ccccn2)cs1)c1ccc(Cl)s1,> 26 µM (inactive)
7,CC(C)C[C@H]1CN=C(Nc2ccccc2)N1CC1CCC(C(C)(C)C)CC1 (stereo partly specified),> 26 µM (inactive)
8,CC(NC(=O)c1cc(COc2ccc3ncccc3c2)on1)c1ccc(F)cc1 (stereo unspecified),> 26 µM (inactive)
9,Cc1ccc(-c2nn(-c3ccccc3)cc2/C=N/NC(=O)c2ccc(Br)o2)cc1,> 26 µM (inactive)
10,CC(C)c1nc(-c2ccccc2)c(-c2ccccc2)[nH]1,> 26 µM (inactive)
11,CCCCCCCCNc1ncnc2ccccc12,> 26 µM (inactive)
12,C/C(=N\NC(=O)c1ccccc1NC(=O)c1ccc(Cl)cc1)c1ccncc1,> 26 µM (inactive)
13,COC(=O)C1CN(C#N)N(c2ccc(Cl)cc2)C12c1ccccc1-c1ccccc12 (stereo unspecified),> 26 µM (inactive)
14,Fc1ccc(CN(Cc2ccccc2)C(c2cccs2)c2nnnn2C2CCCCC2)cc1 (stereo unspecified),> 26 µM (inactive)
15,CCOC(=O)C(=CNc1ccc(C(O)(C(=O)OCC)C(F)(F)F)cc1C)C(=O)OCC (stereo unspecified),> 26 µM (inactive)
16,CCCCC[n+]1ccn(C2=C([O-])c3ccccc3C(=O)/C2=N\S(=O)(=O)c2ccccc2)c1,> 26 µM (inactive)
17,C[N+]1=C(/C=C/Nc2ccccc2Cl)C(C)(C)c2ccccc21,> 26 µM (inactive)
18,O=C(Nc1nc2ccc(F)cc2s1)C1CCN(S(=O)(=O)c2cc([N+](=O)[O-])ccc2Cl)CC1,> 26 µM (inactive)
19,Cc1ccc2c(c1)S/C(=C/c1ccc[n+](CCO)c1)N2C,> 26 µM (inactive)
20,O=S1(=O)C=C(Sc2nnc(-c3ccccc3)o2)c2ccccc21,> 26 µM (inactive)
21,Cc1ccccc1N1CCN(Cc2c[nH]c3ccccc23)CC1,> 26 µM (inactive)
22,COC(=O)c1ccc2c(=O)n(-c3ccccc3)c(SCN3C(=O)c4ccccc4C3=O)nc2c1,> 26 µM (inactive)

row,Structure (SMILES),AC50
1,CCCCCCCCCCOC(=O)Cn1c(COc2cccc(OC)c2)[n+](C)c2ccccc21,> 26 µM (inactive)
2,O=C(C(Cl)Cl)N1c2ccccc2OCC1c1ccccc1 (stereo unspecified),> 26 µM (inactive)
3,COc1ccc(CNC(=O)c2c(C)oc3c2C(=O)c2ccccc2C3=O)cc1,> 26 µM (inactive)
4,CCCCC(CC)CN=C(N)NC(N)=NCCCCCCN=C(N)NC(N)=NCC(CC)CCCC (stereo unspecified),> 26 µM (inactive)
5,COc1ccc(CC(=O)Nc2cccc(-c3nnc(-c4cccc(C)c4)o3)c2)cc1OC,> 26 µM (inactive)
6,COc1ccc(C(CCN2CCCCC2)c2c(OC)cc(OC)c3c(-c4ccccc4)cc(=O)oc23)cc1 (stereo unspecified),16.6 µM
7,O=C(Nc1cccc(C(F)(F)F)c1)Nc1ccc(N2CCCC2)c(S(=O)(=O)Nc2ccccc2Cl)c1,> 26 µM (inactive)
8,O=c1c2c3c(sc2n(CCN2CCCCC2)c(=O)n1Cc1ccco1)CCCCC3,25.4 µM
9,O=S(=O)(c1ccc(Cl)cc1)N1CCN(c2ncnc3sccc23)CC1,> 26 µM (inactive)
10,C=CCSc1nsc(NC(=O)Nc2ccc(F)cc2)n1,> 26 µM (inactive)
11,CCCCCCC[N+](CC)(CC)CCCCc1ccc(Cl)cc1,> 26 µM (inactive)
12,CCOc1ccc(-n2c(O)c(/C=N/Nc3nc(C)cc(C)n3)c3ccccc3c2=O)cc1,> 26 µM (inactive)
13,Cc1cc2c(NCCc3ccccc3)ncnc2s1,> 26 µM (inactive)
14,O=C(NNC(=O)c1cccnc1SCc1cccc([N+](=O)[O-])c1)c1ccc(F)cc1,> 26 µM (inactive)
15,CCN(Cc1ccccc1)C(c1ccc(C(F)(F)F)cc1)c1nnnn1C(C)(C)C (stereo unspecified),> 26 µM (inactive)
16,Cc1ccc(-c2cc(-c3ccccc3)cc(-c3ccccc3)[n+]2-c2ccccc2)cc1,> 26 µM (inactive)
17,COc1ccc(-n2c(-c3ccc(Br)cc3)c[n+]3c2CCCCC3)cc1,> 26 µM (inactive)
18,O=S(=O)(Nc1nc2ccccc2s1)c1ccc(Cl)s1,> 26 µM (inactive)
19,COc1ccc(C)cc1Nc1n[n+](-c2ccccc2)c(-c2c(Cl)cccc2Cl)s1,> 26 µM (inactive)
20,Cc1ccc(C(=O)Nc2nc(-c3ccccn3)cs2)s1,> 26 µM (inactive)
21,CC(C)(C)c1cnnn1-c1ccc(/C=N/Nc2ccc([N+](=O)[O-])cc2)cc1,> 26 µM (inactive)
22,O=C(N/N=C/c1cc([N+](=O)[O-])ccc1O)c1cccc(NC(=O)c2cccc(Cl)c2)c1,> 26 µM (inactive)

row,Structure (SMILES),AC50
1,O=C(N/N=C/c1ccccc1O)c1cccc(C(F)(F)F)c1,> 26 µM (inactive)
2,O=C(C(Sc1ccccc1)c1ccccc1)N1CCN(c2ccccc2F)CC1 (stereo unspecified),> 26 µM (inactive)
3,O=[N+]([O-])c1ccc(-[n+]2ccc3ccccc3c2)c([N+](=O)[O-])c1,> 26 µM (inactive)
4,Cc1nc(N2CCN(C(=O)c3ccco3)CC2)c2c3c(sc2n1)CC(C)CC3 (stereo unspecified),> 26 µM (inactive)
5,NC1=NC[C@@H](CC2CCCCC2)N1CCc1cc(C(F)(F)F)cc(C(F)(F)F)c1,> 26 µM (inactive)
6,COc1ccc(C2/C=C\CN(C(=O)c3ccccc3)[C@H](Cc3ccccc3)C(=O)N2Cc2ccc(F)cc2)cc1 (stereo partly specified),> 26 µM (inactive)
7,CN1/C(=C\C(=O)CN2C(=O)NC3(CCCCCC3)C2=O)C(C)(C)c2ccccc21,> 12 µM (inactive)
8,COc1ccc(CC2(CO)CCN(CC3=Cc4cc(Cl)ccc4OC3)CC2)cc1,> 26 µM (inactive)
9,COc1cccc(N=Nc2ccc(O)c3ncccc23)c1,> 26 µM (inactive)
10,CCOc1cc(/C=C2\CCC/C(=C\c3cc(Cl)c(O)c(OCC)c3)C2=O)cc(Cl)c1O,9.51 µM
11,Cc1cc(C(C)(C)C)cc(C)c1Cn1c2[n+](c3ccc(C(F)(F)F)cc31)CCCCC2,> 26 µM (inactive)
12,COc1ccc(-c2cn(-c3ccc(OC)cc3)c3[n+]2-c2ccccc2CC3)cc1,> 26 µM (inactive)
13,CC(C)N=c1cc2n(-c3ccc(Cl)cc3)c3ccccc3nc-2cc1Nc1ccc(Cl)cc1,> 26 µM (inactive)
14,Cc1cc(C)n(-c2nc3ccccc3c(=O)n2OCC#N)n1,> 26 µM (inactive)
15,CCC(=NNC(=O)c1ccc2c(c1)nc(C)n2CC)c1cc(F)ccc1O,> 26 µM (inactive)
16,CCN(CC)S(=O)(=O)c1ccc(N2CCN(c3ccccc3OC)CC2)c(N)c1,> 26 µM (inactive)
17,COc1cc(/C=C(/C(=O)c2cccs2)c2nc3ccccc3[nH]2)ccc1O,> 26 µM (inactive)
18,COc1ccc(-c2c([C@H]3[C@H]4C=CC[C@@H](C)[C@@H]4C(=O)N3Cc3ccccc3)ccc3ccccc23)cc1,> 26 µM (inactive)
19,N=c1c2c(n(Cc3ccc(Cl)cc3Cl)c3c1CCC3)CCCC2,> 26 µM (inactive)
20,COc1cc(C(=O)NC(=S)NNC(=O)c2cnccn2)cc(OC)c1OC,> 26 µM (inactive)
21,CCN1/C(=C/c2ccc3cc(C)ccc3[n+]2CC)Sc2ccc3sccc3c21,> 26 µM (inactive)
22,CCOC(=O)C(C(C)=O)c1c(Br)c(O)c(O)c2c(C(=O)c3ccc(C)cc3)coc12 (stereo unspecified),> 26 µM (inactive)
